In ChEMBL document CHEMBL3508693 (2016) one finds Compound recovery data, which are given here for one molecule.

Each structure is given as a SMILES string.

Series [1] is described as follows: % of radioactivity recovered as M2 from M3 in urine following intravenous administration of [14C] aliskiren hemifumarate at 10 mg.Kg-1 level in rat. The class given is ADME, organism-based, Albino HAN:WIST. As to conditions: in vivo.
The nature of series [2]: % of radioactivity recovered as M2 from M3 in plasma following intravenous administration of [14C] aliskiren hemifumarate at 10 mg.Kg-1 level in rat. The series is classed as ADME, organism-based, Albino HAN:WIST. As to conditions: in vivo.
The nature of series [3]: % aliskiren hemifumarate (0-168h) recovered as M2 from M3 in urine following single intravenous dose of [14C] aliskiren hemifumarate at 1 mg.Kg-1 level in marmoset. The class given is ADME, organism-based, Callithrix jacchus. The note with it: in vivo.
The nature of series [4]: % aliskiren hemifumarate (0-72h) recovered as M2 from M3 in faeces following single oral dose of [14C] aliskiren hemifumarate at 3 mg.Kg-1 level in marmoset. As to conditions: in vivo. The class given is ADME, organism-based, Callithrix jacchus, Feces.
A short description of series [5]: % of radioactivity recovered as M2 from M3 in faeces following oral administration of [14C] aliskiren hemifumarate at 100 mg.Kg-1 level in rat. The series is classed as ADME, organism-based, Albino HAN:WIST, Feces. As to conditions: in vivo.
A short description of series [6]: % aliskiren recovered as metabolite M2 in urine following 10 day repeated oral administration of [14C] aliskiren hemifumarate at 100 mg.Kg-1 level studied in rat. The class given is ADME, organism-based, Albino HAN:WIST. The note with it: in vivo, 240 h.
A short description of series [7]: % aliskiren hemifumarate recovered as M2 from M3 in urine and faeces following single oral dose of 300 mg [14C]SPP100 studied in healthy men. The class given is ADME, organism-based, Urine/Feces. As to conditions: human, in vivo, at 300 mg.
Series [8] is described as follows: % of radioactivity recovered as M2 from M3 in plasma following oral administration of [14C] aliskiren hemifumarate at 100 mg.Kg-1 level in rat. The class given is ADME, organism-based, Albino HAN:WIST. As to conditions: in vivo.
Series [9] is described as follows: % aliskiren hemifumarate (0-72h) recovered as M2 from M3 in faeces following single intravenous dose of [14C] aliskiren hemifumarate at 1 mg.Kg-1 level in marmoset. The class given is ADME, organism-based, Callithrix jacchus, Feces. As to conditions: in vivo.
The nature of series [10]: % aliskiren hemifumarate recovered as M2 from M3 in faeces following single oral dose of 300 mg [14C]SPP100 studied in healthy men. The class given is ADME, organism-based, Feces. As to conditions: human, in vivo, at 300 mg.
Series [11] in a line: % aliskiren recovered as M2 from M3 in urine following single intravenous administration of 10 mg.Kg-1 [14C] aliskiren hemifumarate in male rat. The class given is ADME, organism-based, HAN:WIST(SPF). As to conditions: in vivo.
The nature of series [12]: % aliskiren recovered as metabolite M2 in plasma following 10 day repeated oral administration of [14C] aliskiren hemifumarate at 100 mg.Kg-1 level studied in rat. As to conditions: in vivo, 240 h. The series is classed as ADME, organism-based, Albino HAN:WIST.
A short description of series [13]: % aliskiren recovered as M2 from M3 in bile following single intravenous administration of 10 mg.Kg-1 [14C] aliskiren hemifumarate in male rat. The series is classed as ADME, organism-based, HAN:WIST(SPF). As to conditions: in vivo.
The nature of series [14]: % of radioactivity recovered as M2 from M3 in faeces following intravenous administration of [14C] aliskiren hemifumarate at 10 mg.Kg-1 level in rat. The series is classed as ADME, organism-based, Albino HAN:WIST, Feces. As to conditions: in vivo.
Series [15] is described as follows: % aliskiren recovered as M2 from M3 in hydrolysed following single intravenous administration of 10 mg.Kg-1 [14C] aliskiren hemifumarate in male rat. The series is classed as ADME, organism-based, HAN:WIST(SPF), Bile. As to conditions: in vivo.
Series [16] can be described thus: % aliskiren hemifumarate recovered as M2 from M3 in urine following single oral dose of 300 mg [14C]SPP100 studied in healthy men. The class given is ADME, organism-based. The note with it: human, in vivo, at 300 mg.
Series [17] in a line: % of radioactivity recovered as M2 from M3 in urine following oral administration of [14C] aliskiren hemifumarate at 100 mg.Kg-1 level in rat. The note with it: in vivo. The series is classed as ADME, organism-based, Albino HAN:WIST.
Series [18] can be described thus: % aliskiren recovered as M2 from M3 of receiver rat following duodenal infusion of radioactivity through bile from donor rat treated with single intravenous administration of 10 mg.Kg-1 [14C] aliskiren hemifumarate. The class given is ADME, organism-based, HAN:WIST(SPF). As to conditions: in vivo.
Series [19] can be described thus: % aliskiren hemifumarate (0-168h) recovered as M2 from M3 in urine following single oral dose of [14C] aliskiren hemifumarate at 3 mg.Kg-1 level in marmoset. As to conditions: in vivo. The series is classed as ADME, organism-based, Callithrix jacchus.
Series [20] is described as follows: % aliskiren recovered as metabolite M2 in faeces following 10 day repeated oral administration of [14C] aliskiren hemifumarate at 100 mg.Kg-1 level studied in rat. As to conditions: in vivo, 240 h. The series is classed as ADME, organism-based, Albino HAN:WIST, Feces.

With `COc1ccc(C[C@@H](C[C@H](N)[C@@H](O)C[C@H](C(=O)NCC(C)(C)C(N)=O)C(C)C)C(C)C)cc1OCCC(=O)O`, the Compound recovery result in series [1] is “<= 2%”; in [2], “<= 2%”; in [3] it was 0.1%; in series [4], 2%; in series [5], “<= 2%”; in [6], “OUTCOME = Observed, VALUE = Minor amounts”. The Compound recovery in series [7] was 0.6%; in [8] it was “<= 2%”; in series [9] it was 6%; in [10], 0.5%; in [11], 2.9%; in [12] it was “OUTCOME = Observed, VALUE = Minor amounts”. Further, the Compound recovery is 7.4% in series [13]; over 2% in series [14]; 10.2% in [15]; under 0.1% in series [16]; “<= 2%” in series [17]; 15.4% in [18]. In addition, the Compound recovery is 0.1% in series [19] and “OUTCOME = Observed, VALUE = Minor amounts” in series [20].
